Calls of active or inactive are those of the source.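 How the source made its calls: active means fitted curve climbs past 10% caspase activation, relative to the positive control, at or below the top valid tested dose; inactive means the rest, including activity in the opposite direction.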
test system: MEF A1-2A-BIM cells, caspase 3/7 luminescence; assay: caspase activation in A1-2A-BIM fibroblasts – cell-based, MEF A1-2A-BIM, luminescence, dry powder, set 2, Bcl2-A1 inhibitor project, dose response (AID 504345); conditions: not given

Row | Structure (SMILES) | AC10 [µM]
1 | Cc1ccc(Sc2c([N+](=O)[O-])cnc3ccccc23)cc1 | 8.65
2 | Cn1c(=O)c([N+](=O)[O-])c(Cl)c2ccccc21 | 0.632
3 | Cc1ccc(Sc2c([N+](=O)[O-])c(=O)n(C)c3ccccc23)cc1 | 4.06
4 | Cn1c(=O)c([N+](=O)[O-])c(-n2cnc3ccccc32)c2ccccc21 | 9.42

test system: not listed separately; assay: as above; conditions: MEF A1-2A-BIM cells, caspase 3/7 luminescence; at 35 µM (top of the series)

Row | Structure (SMILES) | caspase activation
5 | O=c1oc2ccccc2c(Sc2ccccc2)c1[N+](=O)[O-] | -9.2% (inactive)
6 | Cn1c(=O)c([N+](=O)[O-])c(Nc2ccc(Cl)cc2)c2ccccc21 | -1.07% (inactive)
7 | CCOCCCNc1c([N+](=O)[O-])c(=O)n(C)c2ccccc12 | 2.29% (inactive)
8 | Cn1c(=O)c([N+](=O)[O-])c(Oc2ccccc2)c2ccccc21 | 4.18% (inactive)
9 | Cc1ccc(Sc2cc(=O)n(C)c3ccccc23)cc1 | -11.4% (inactive)
10 | O=[N+]([O-])c1cnc2ccccc2c1Sc1ccccc1 | -2.86% (inactive)
11 | Cc1ccc(Nc2c([N+](=O)[O-])c(=O)n(C)c3ccccc23)cc1 | -2.07% (inactive)
12 | O=c1oc2ccccc2c(Cl)c1[N+](=O)[O-] | -8.87% (inactive)
13 | O=C(Oc1cccc(/C=N/Nc2nc(Nc3ccccc3)nc(N3CCOCC3)n2)c1)c1ccco1 | 6.44% (inactive)
14 | O=c1oc2ccccc2c(N2CCCCC2)c1[N+](=O)[O-] | -1.93% (inactive)
15 | CCSc1c([N+](=O)[O-])c(=O)oc2ccccc12 | -6.49% (inactive)
16 | Cc1ccc(Nc2c([N+](=O)[O-])c(=O)oc3ccccc23)cc1 | 1.97% (inactive)
17 | O=c1oc2ccccc2c(Nc2cc(Cl)cc(Cl)c2)c1[N+](=O)[O-] | -2.92% (inactive)
18 | C/C1=C/C(=O)O[C@@H]2C[C@@H](CC[C@H](C)/C=C\CC1)O[C@@](O)(C1CSC(=O)N1)C2 (stereo partly specified) | 9.53% (inactive)
19 | CCOC(=O)N1CCN(c2c([N+](=O)[O-])c(=O)n(C)c3ccccc23)CC1 | -2.42% (inactive)
20 | CN1C(=O)C(C)(C)N(Cc2ccccc2)c2ccccc21 | 0.119% (inactive)
21 | Cc1ccc(Sc2c([N+](=O)[O-])c(=O)oc3ccccc23)cc1 | -5.88% (inactive)

— PubChem BioAssay AID504345 (Broad Institute, 2011)
